ChEMBL document CHEMBL4732119, “Design, synthesis and pharmacological evaluation of bicyclic and tetracyclic pyridopyrimidinone analogues as new KRAS inhibitors” (Eur J Med Chem, 2021)

Legend:
[1] = system: GTPase KRas (Homo sapiens), P01116 [G12C]; conditions: NCI-H358, dose 10-1000 nM, time 6.0 hrs
[2] = system: GTPase KRas (Homo sapiens), P01116 [G12C]; assay: Inhibition of KRAS G12C mutant in human NCI-H358 cells assessed as reduction in AKT phosphorylation measured after 6 hrs by Western blot analysis; type: cell-based; conditions: dose 10-1000 nM
[3] = system: GTPase KRas (Homo sapiens), P01116 [G12C]; assay: Inhibition of KRAS G12C mutant in human NCI-H358 cells assessed as reduction in ERK phosphorylation measured after 6 hrs by Western blot analysis; type: cell-based; conditions: dose 10-1000 nM

Measured: inhibition

Chain of GTPase KRas (Homo sapiens), P01116 [G12C] (P01116 whole entry G12C): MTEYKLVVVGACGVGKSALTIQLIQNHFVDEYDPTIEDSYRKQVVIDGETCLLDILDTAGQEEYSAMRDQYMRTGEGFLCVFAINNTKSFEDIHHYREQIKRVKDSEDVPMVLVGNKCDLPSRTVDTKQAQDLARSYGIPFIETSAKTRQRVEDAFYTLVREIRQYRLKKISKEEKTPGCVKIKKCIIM

C=CC(=O)N1CCN(c2nc(=O)n(-c3c(C)ccnc3C(C)C)c3c(F)c(-c4c(O)cccc4F)ncc23)[C@@H](C)C1 (stereo in doubt; 26a)
active: [1] Dose-dependent effect | [2] Dose-dependent effect | [3] Dose-dependent effect
